# Source: patent publication US11744863B2, “Process for preparing a pooled human platelet lysate, pooled human platelet lysate and its use for treating neurological disorders” (priority 2017, dated 2023)
# Test: Body weight evolution of treated mice
# Assay type: in vivo
# Procedure: The mice enrolled were FVB-Tg(Sod1*G86R)M1Jwg/J mice from JAX laboratories. Animals were group-housed (10 per cage) in a temperature-controlled room (22±2° C.) with a 12/12-hour light/dark cycle. Food and water were feed ad-libitum. […] Breeding was realized (since 2013 may) in SOPF facility and genotyping is performed by qPCR (from tail biopsy). Animal are identified with earrings.
# Mice were handled and weighted at the age of 60 days. Canula implantation in intra cerebro-ventricular (ICV) by stereotaxie start at this date and mice are acclimated during 1 week.
# (Gurney and al, Neurology, 1998). Then they were evaluated, twice a week (i.e. body weight and neuroscore), from the age of 67 days to their death.
# Two different treatments are performed from 75 days to death: • HT_pHPL prepared as described in example 1 and at 1 g/L, pH 7.4 versus vehicle. The dose of HT_pHPL administrated by intermittent ICV was 4 μL, three times a week at rate of 0.5 μL/min. […]
compound,measurement,setting,value
Nc1nc2ccc(OC(F)(F)F)cc2s1 [Riluzole],day of body weight decrease,Tg mice FVB-Tg(Sod1*G86R),88 days
same,effect on body weight evolution,WT mice,no effect
